Measured values reported in the NIST ThermoML archive (doi:10.1021/je0498560).

Assay: xn = mol fraction of the nth substance listed
Conditions: Liquid

OCC(F)(F)F [2,2,2-trifluoroethanol] + O=C=O
Conditions | molar volume [m3/mol]
298 K, x2 = 0.132 | 6.39e-05
298 K, x2 = 0.225 | 6.3e-05
298 K, x2 = 0.358 | 5.95e-05
298 K, x2 = 0.48 | 5.81e-05
298 K, x2 = 0.599 | 5.71e-05
298 K, x2 = 0.704 | 5.51e-05
298 K, x2 = 0.749 | 5.51e-05
298 K, x2 = 0.795 | 5.43e-05
298 K, x2 = 0.842 | 5.49e-05
298 K, x2 = 0.888 | 5.48e-05
298 K, x2 = 0.927 | 5.5e-05
313 K, x2 = 0.16 | 6.1e-05
313 K, x2 = 0.23 | 6.13e-05
313 K, x2 = 0.337 | 6.06e-05
313 K, x2 = 0.424 | 5.94e-05
313 K, x2 = 0.517 | 5.84e-05
313 K, x2 = 0.628 | 5.51e-05
313 K, x2 = 0.715 | 5.3e-05
313 K, x2 = 0.773 | 5.34e-05
313 K, x2 = 0.849 | 5.65e-05
313 K, x2 = 0.901 | 5.98e-05

CN1CCCC1=O [N-methylpyrrolidone] + O=C=O
313 K
Conditions | molar volume [m3/mol]
x2 = 0.104 | 8.91e-05
x2 = 0.19 | 8.48e-05
x2 = 0.242 | 8.26e-05
x2 = 0.311 | 7.9e-05
x2 = 0.374 | 7.57e-05
x2 = 0.437 | 7.32e-05
x2 = 0.499 | 6.98e-05
x2 = 0.565 | 6.66e-05
x2 = 0.629 | 6.23e-05
x2 = 0.725 | 5.67e-05
x2 = 0.816 | 5.34e-05

CC(C)=O [acetone] + O=C=O
323 K
Conditions | molar volume [m3/mol]
x2 = 0.056 | 7.37e-05
x2 = 0.14 | 7.18e-05
x2 = 0.251 | 6.75e-05
x2 = 0.335 | 6.67e-05
x2 = 0.432 | 6.42e-05
x2 = 0.53 | 6.23e-05
x2 = 0.603 | 6.1e-05
x2 = 0.648 | 6.01e-05
x2 = 0.695 | 5.71e-05
x2 = 0.73 | 5.66e-05
x2 = 0.76 | 5.74e-05
x2 = 0.787 | 5.81e-05

CC#N [acetonitrile] + O=C=O
313 K
Conditions | molar volume [m3/mol]
x2 = 0.044 | 5.19e-05
x2 = 0.073 | 5.25e-05
x2 = 0.093 | 5.33e-05
x2 = 0.168 | 5.24e-05
x2 = 0.241 | 5.11e-05
x2 = 0.312 | 5.1e-05
x2 = 0.381 | 5.18e-05
x2 = 0.449 | 5.07e-05
x2 = 0.523 | 4.98e-05
x2 = 0.598 | 4.96e-05
x2 = 0.688 | 4.9e-05
x2 = 0.77 | 4.87e-05
x2 = 0.834 | 5.08e-05

ClCCl [dichloromethane] + O=C=O
313 K
Conditions | molar volume [m3/mol]
x2 = 0.044 | 6.51e-05
x2 = 0.114 | 6.32e-05
x2 = 0.188 | 6.24e-05
x2 = 0.269 | 6.13e-05
x2 = 0.444 | 5.87e-05
x2 = 0.533 | 5.74e-05
x2 = 0.644 | 5.64e-05
x2 = 0.738 | 5.32e-05
x2 = 0.83 | 5.42e-05
x2 = 0.859 | 5.82e-05
